Reference: patent US20060079453A1, “Hla binding peptides and their uses” (priority 2002, published 2006)
Where two headings read alike, the source gives them in different places. No end group written: not given here.

Legend:
Assay in all cases: biochemical
Type in all cases: binding
HLA-DR DRB1*0301 (DR3) = HLA-DR DRB1*0301 (DR3) (Homo sapiens, UniProt P01903+P01911, A100K/A102G/A103R/A169T/F55Y/I96L/K41T/L162R/M171V/P40S/Q125H/Q178H/Q39Y/R42S/S66N/T106N/T262R/W38E/Y61H)
HLA-DR DRB1*0405 (DR4) = HLA-DR DRB1*0405 (DR4) (Homo sapiens, UniProt P01903+P01911, A100R/A169T/D86S/F76Y/I96L/K127E/L162R/M171V/N62H/P40V/Q125Y/R42H/S133A/S149N/S66Y/V115G/V209L/W38E)
HLA-DR DRB1*0101 (DR1) = HLA-DR DRB1*0101 (DR1) (Homo sapiens, UniProt P01903+P01911, A100R/D57E/F55L/F60I/F76Y/I96L/L162R/M171V/P40L/Q125E/R42F/V115G/Y59C); conditions: DRB1 *0101
HLA-DR DRB4*0101 (DR53) = HLA-DR DRB4*0101 (DR53) (Homo sapiens, UniProt P01903+P13762, G164S); conditions: DRB4 *0101
HLA-DR DRB1*0701 (DR7) = HLA-DR DRB1*0701 (DR7) (Homo sapiens, UniProt P01903+P01911, A100R/A102G/A103Q/D57E/D86V/E43K/F76Y/K127E/L162R/M171V/P40G/Q125H/Q99D/R33Q/R42Y/R54Q/S133A/S66F/T210M/V115G/Y107V/Y59L/Y89S)
HLA-DR DRB1*0901 (DR9) = HLA-DR DRB1*0901 (DR9) (Homo sapiens, UniProt P01903+P01911, A100R/A103E/D57H/D86V/F55Y/F60I/F76Y/I96F/K127E/L162R/M171V/P40D/Q125H/Q99R/R33Q/R42F/S133A/S66N/T210M/V115G/W38K/Y107V/Y59G/Y89S)
HLA-DR DRB1*1302 (DR13) = HLA-DR DRB1*1302 (DR13) (Homo sapiens, UniProt P01903+P01911, A100E/A169T/K41T/L162R/M171V/P40S/Q125H/Q178H/Q39Y/Q99D/R42S/S66N/T262R/V115G/W38E/Y61H); conditions: DRBI *1302
HLA-DR DRB1*0401 (DR4) = HLA-DR DRB1*0401 (DR4) (Homo sapiens, UniProt P01903+P01911, A100K/A169T/F76Y/I96L/K127E/L162R/M171V/N62H/P40V/Q125Y/R42H/S133A/S149N/S66Y/V115G/V209L/W38E); conditions: DRB1 *0401
HLA-DR DRB1*1501 (DR15) = HLA-DR DRB1*1501 (DR15) (Homo sapiens, UniProt P01903+P01911); conditions: DRBI *1501
HLA-DR DRB5*0101 (DR51) = HLA-DR DRB5*0101 (DR51) (Homo sapiens, UniProt P01903+Q30154); conditions: DRB5 *0101
HLA-DR DRB1*1101 (DR11) = HLA-DR DRB1*1101 (DR11) (Homo sapiens, UniProt P01903+P01911, A100R/A169T/A87E/I96F/K41T/L162R/M171V/P40S/Q125H/Q178H/Q39Y/Q99D/R42S/S66Y/T262R/V115G/W38E); conditions: DRB1 *1101
HLA-DR DRB1*1101 (DR11), sequence (P01903 26-254 limits assumed, other chains not shown): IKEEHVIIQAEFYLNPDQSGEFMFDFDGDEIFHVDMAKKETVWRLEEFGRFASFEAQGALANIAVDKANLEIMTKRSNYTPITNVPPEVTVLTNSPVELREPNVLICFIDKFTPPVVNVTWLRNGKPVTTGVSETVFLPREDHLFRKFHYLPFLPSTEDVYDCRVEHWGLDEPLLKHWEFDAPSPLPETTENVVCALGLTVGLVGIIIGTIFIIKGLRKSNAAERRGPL

HLA-DR DRB1*1302 (DR13), sequence (P01903 26-254 limits assumed, other chains not shown): as above
HLA-DR DRB1*0301 (DR3), sequence (P01903 26-254 limits assumed, other chains not shown): as above

CC[C@H](C)[C@H](N)C(=O)N[C@@H](CCCNC(=N)N)C(=O)N[C@H](C(=O)N[C@@H](CC(C)C)C(=O)N[C@@H](CCC(=O)O)C(=O)N[C@@H](CC(=O)O)C(=O)N[C@@H](CC(C)C)C(=O)N[C@@H](CC(C)C)C(=O)N[C@@H](CCSC)C(=O)NCC(=O)N[C@H](C(=O)N[C@@H](CC(C)C)C(=O)NCC(=O)N[C@H](C(=O)N[C@H](C(=O)O)C(C)C)[C@@H](C)CC)[C@@H](C)O)[C@@H](C)O
IC50 (HLA-DR DRB1*0301 (DR3)): 5210 nM | IC50 (HLA-DR DRB1*0405 (DR4); DRB1 *0405): 61 nM | IC50 (HLA-DR DRB1*0101 (DR1)): 16 nM | IC50 (HLA-DR DRB4*0101 (DR53)): 23 nM | IC50 (HLA-DR DRB1*0701 (DR7); DRB1 *0701): 895 nM | IC50 (HLA-DR DRB1*0901 (DR9); DRB1 *0901): 1720 nM | IC50 (HLA-DR DRB1*1302 (DR13)): 789 nM | IC50 (HLA-DR DRB1*0401 (DR4)): 95 nM

CC[C@H](C)[C@H](NC(=O)[C@H](CCC(=O)O)NC(=O)[C@H](CC(C)C)NC(=O)[C@H](C)NC(=O)[C@H](CO)NC(=O)[C@H](CO)NC(=O)[C@H](CC(C)C)NC(=O)[C@H](CCC(=O)O)NC(=O)[C@H](Cc1c[nH]cn1)NC(=O)[C@H](CC(C)C)NC(=O)[C@H](CCCCN)NC(=O)[C@H](CCCNC(=N)N)NC(=O)[C@@H]1CCCN1)C(=O)N1CCC[C@H]1C(=O)N[C@@H](Cc1ccc(O)cc1)C(=O)O
IC50 (HLA-DR DRB1*0301 (DR3)): 16100 nM | IC50 (HLA-DR DRB1*1501 (DR15)): 1120 nM | IC50 (HLA-DR DRB1*0405 (DR4); DRB1 *0405): 80 nM | IC50 (HLA-DR DRB1*0901 (DR9); DRB1 *0901): 213 nM | IC50 (HLA-DR DRB1*1302 (DR13)): 51 nM | IC50 (HLA-DR DRB1*0401 (DR4)): 5280 nM | IC50 (HLA-DR DRB5*0101 (DR51)): > 10700 nM

CSNLSTCVLQKLSQE
IC50 (HLA-DR DRB1*0301 (DR3); read-out: DRB1 *0301): > 205000 nM | IC50 (HLA-DR DRB1*0405 (DR4); read-out: DRB1 *0405): 5340 nM | IC50 (HLA-DR DRB1*0701 (DR7); read-out: DRB1 *0701): 31800 nM | IC50 (HLA-DR DRB1*0901 (DR9); read-out: DRB1 *0901): 7220 nM

DFAFADLTVVYREGN
IC50 (HLA-DR DRB1*1501 (DR15)): 4920 nM | IC50 (HLA-DR DRB1*0405 (DR4); DRB1 *0405): 60 nM | IC50 (HLA-DR DRB1*0101 (DR1)): 3290 nM | IC50 (HLA-DR DRB4*0101 (DR53)): 18000 nM | IC50 (HLA-DR DRB1*0701 (DR7); DRB1 *0701): 1730 nM | IC50 (HLA-DR DRB1*0901 (DR9); DRB1 *0901): 322 nM | IC50 (HLA-DR DRB1*1302 (DR13)): 9630 nM | IC50 (HLA-DR DRB1*1101 (DR11)): > 18000 nM | IC50 (HLA-DR DRB1*0401 (DR4)): 141 nM | IC50 (HLA-DR DRB5*0101 (DR51)): 39800 nM

DFAFTDLTIVYRDDT
IC50 (HLA-DR DRB1*0301 (DR3)): 23 nM | IC50 (HLA-DR DRB1*1501 (DR15)): 3650 nM | IC50 (HLA-DR DRB1*0405 (DR4); DRB1 *0405): 40 nM | IC50 (HLA-DR DRB4*0101 (DR53)): 21600 nM | IC50 (HLA-DR DRB1*0901 (DR9); DRB1 *0901): 1440 nM | IC50 (HLA-DR DRB1*1302 (DR13)): 5010 nM | IC50 (HLA-DR DRB1*0401 (DR4)): 80 nM | IC50 (HLA-DR DRB5*0101 (DR51)): 675 nM

DLRVVQQLLMGALTV
IC50 (HLA-DR DRB1*0301 (DR3)): 26000 nM | IC50 (HLA-DR DRB1*0405 (DR4); DRB1 *0405): 84 nM | IC50 (HLA-DR DRB1*0101 (DR1)): 8.4 nM | IC50 (HLA-DR DRB4*0101 (DR53)): 9.5 nM | IC50 (HLA-DR DRB1*0701 (DR7); DRB1 *0701): 508 nM | IC50 (HLA-DR DRB1*0901 (DR9); DRB1 *0901): 1840 nM | IC50 (HLA-DR DRB1*1302 (DR13)): 57 nM

FVVYRDSIPHAACHK
IC50 (HLA-DR DRB1*0301 (DR3)): 200 nM | IC50 (HLA-DR DRB1*1501 (DR15)): 349 nM | IC50 (HLA-DR DRB1*0405 (DR4); DRB1 *0405): 704 nM | IC50 (HLA-DR DRB1*0101 (DR1)): 587 nM | IC50 (HLA-DR DRB4*0101 (DR53)): 18100 nM | IC50 (HLA-DR DRB1*0901 (DR9); DRB1 *0901): 2120 nM | IC50 (HLA-DR DRB1*1302 (DR13)): 1850 nM | IC50 (HLA-DR DRB1*0401 (DR4)): 10 nM | IC50 (HLA-DR DRB5*0101 (DR51)): 2340 nM

LSFFLKEKGGLDGL
IC50 (HLA-DR DRB1*0301 (DR3); read-out: DRB1 *0301): > 341000 nM | IC50 (HLA-DR DRB1*0405 (DR4); read-out: DRB1 *0405): 983 nM | IC50 (HLA-DR DRB1*0701 (DR7); read-out: DRB1 *0701): 20000 nM | IC50 (HLA-DR DRB1*0901 (DR9); read-out: DRB1 *0901): 3500 nM
